Structures can show the parent of a compound that is named as a salt.

The target of the test is T1, human α2C receptor (Homo sapiens, UniProt P18825).
T1 construct: expressed in transfected cells; host or cells: CHO cells, also recombinantly expressing chimeric G protein Gαqi3 and mitochondrial obelin (mtOb)
T1 sequence (P18825 1-462): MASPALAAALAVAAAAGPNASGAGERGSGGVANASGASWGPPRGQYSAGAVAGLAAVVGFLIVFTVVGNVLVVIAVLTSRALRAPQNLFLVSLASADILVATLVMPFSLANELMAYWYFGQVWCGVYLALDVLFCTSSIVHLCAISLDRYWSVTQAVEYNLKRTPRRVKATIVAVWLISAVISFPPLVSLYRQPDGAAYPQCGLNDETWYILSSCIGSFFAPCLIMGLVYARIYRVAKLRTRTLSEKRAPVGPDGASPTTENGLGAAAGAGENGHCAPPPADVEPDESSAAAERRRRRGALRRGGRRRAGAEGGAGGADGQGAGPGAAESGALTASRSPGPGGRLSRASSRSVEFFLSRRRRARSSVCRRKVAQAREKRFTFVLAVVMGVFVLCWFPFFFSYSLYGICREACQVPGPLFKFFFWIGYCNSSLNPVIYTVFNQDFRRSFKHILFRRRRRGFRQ
Kind of test: Antagonism against the adrenoreceptor α2C (luminescence, recombinant CHO cell line). It counts as cell-based. The conditions noted are these: antagonism against adrenoreceptor α2C; noradrenaline 20 nM; tested up to 10 μM; read-out: IC50. How it is done: Antagonism against the adrenoreceptor α1A was tested using a recombinant human α1A receptor CHO cell line which additionally also recombinantly expresses mtAeq (mitochondrial aequorin). Antagonism against the adrenoreceptor α2A was tested using a recombinant human α2A-Gα16 receptor fusion protein CHO cell line (PerkinElmer Life Sciences) which additionally also recombinantly expresses mtAeq. Antagonism against the adrenoreceptor α2B was tested using a recombinant human α2B receptor CHO cell line (PerkinElmer Life Sciences) which additionally also recombinantly expresses mtAeq. Antagonism against the adrenoreceptor α2C was tested using a recombinant human α2C receptor CHO cell line which additionally also recombinantly expresses a chimaric G protein (Gαqi3) and mtOb (mitochondrial obelin).
The cells were cultivated at 37° C. and 5% CO2 in Dulbecco's modified Eagle's Medium/NUT mix F12 with L-glutamine which additionally contains 10% (v/v) inactivated foetal calf serum, 1 mM sodium pyruvate, 0.9 mM sodium bicarbonate, 50 U/ml penicillin, 50 μg/ml streptomycin, 2.5 μg/ml amphotericin B and 1 mg/ml Geneticin. The cells were passaged with enzyme-free Hank's-based cell dissociation buffer. All cell culture reagents used are from Invitrogen (Carlsbad, USA).
Luminescence measurements were carried out on white 384-well microtitre plates. 2000 cells/well were plated in a volume of 25 μl and cultivated for one day at 30° C. and 5% CO2 in cell culture medium with coelenterazine (α2A and α2B: 5 μg/ml; α1a/c and α2C: 2.5 μg/ml). Serial dilutions of the test substances (10 μl) were added to the cells. After 5 minutes, noradrenalinee was added to the cells (35 μl; final concentrations: 20 nM (α1a/c and α2C) or 200 nM (α2A and α2B)), and the emitted light was measured for 50 seconds using a CCD (charge-coupled device) camera (Hamamatsu Corporation, Shizuoka, Japan) in a light-tight box. The test substances were tested up to a maximum concentration of 10 μM. The IC50 values were calculated from the appropriate dose-response curves.

Take `C[C@@H]1CCCN(C2CCN(C(=O)c3ccc(C(=O)NCc4ncc(F)cc4F)cc3)CC2)C1` [Example 82, (R)—N-[(3,5-Difluoropyridin-2-yl)methyl]-4-{[(3R)-3-methyl-1,4′-bipiperidin-1′-yl]carbonyl}benzamide trifluoroacetic acid salt]: the IC50 – broadly, the concentration that gives 50% inhibition – came out at 15 nM. `CC1CCCN(C2CCN(C(=O)c3ccc(C(=O)NC(C)C(C)C)cc3)CC2)C1` (stereo not shown) [Example 47, 4-[(3-methyl-1,4′-bipiperidin-1′-yl)carbonyl]-N-(3-methylbutan-2-yl)benzamide]: the IC50 was found to be 150 nM.

For `CC1CCCN(C2CCN(C(=O)c3ccc(C(=O)NCc4ccncc4)cc3)CC2)C1` (stereo not shown) [Example 45, 4-[(3-methyl-1,4′-bipiperidin-1′-yl)carbonyl]-N-(pyridin-4-yl-methyl) benzamide], the IC50 turned out to be 82 nM.

Regarding `C[C@@H]1CCCN(C2CCN(C(=O)c3ccc(C(=O)NCc4ncccc4F)cc3)CC2)C1` [Example 98, N-[(3-Fluoropyridin-2-yl)methyl]-4-{[(3R)-3-methyl-1,4′-bipiperidin-1′-yl]carbonyl}benzamide], the concentration for half-maximal inhibition (IC50) is 27 nM.

Regarding `CCC1CCCN(C2CCN(C(=O)c3ccc(C(C)(C)O)cc3)CC2)C1` (single isomer, unassigned; enantiomer 1) [Example 115, [3-Ethyl-1,4′-bipiperidin-1′-yl][4-(2-hydroxypropan-2-yl)phenyl]methanone (enantiomer 1)], the half-maximal inhibitory concentration (IC50) turned out to be 22 nM. `CCOCC1CCCN(C2CCN(C(=O)c3ccc(C(C)(C)O)cc3)CC2)C1` (stereo not shown) [Example 120, [3-(Ethoxymethyl)-1,4′-bipiperidin-1′-yl][4-(2-hydroxypropan-2-yl)phenyl]methanone]: the 50% inhibitory concentration (IC50) amounted to 10 nM. On to `CCOC(=O)C1CCCN(C2CCN(C(=O)c3ccc(C(C)(C)C(=O)OCC)cc3)CC2)C1` (stereo not shown) [Example 29, 3-(Ethoxycarbonyl)-1-{1-[4-(1-ethoxy-2-methyl-1-oxopropan-2-yl)benzoyl]piperidin-4-yl}piperidine trifluoroacetic acid salt], for which the IC50 is 29 nM. The figure for `CC(C)(O)c1ccc(C(=O)N2CCC(N3CCCC(c4nc(CC5CCC5)n[nH]4)C3)CC2)cc1` (stereo not shown) [Example 69, {3-[5-(Cyclobutylmethyl)-4H-1,2,4-triazol-3-yl]-1,4′-bipiperidin-1′-yl}[4-(2-hydroxypropan-2-yl)phenyl]methanone] is 25 nM. The figure for `CC1CCCN(C2CCN(C(=O)c3ccc(C(=O)NC(C)Cn4cccn4)cc3)CC2)C1` (stereo not shown) [Example 54, 4-[(3-methyl-1,4′-bipiperidin-1′-yl)carbonyl]-N-[1-(1H-pyrazol-1-yl)propan-2-yl]benzamide] is 199 nM; for `CC1CCCN(C2CCN(C(=O)c3ccc(C(=O)NC(C)(C)c4ccc(Cl)c(Cl)c4)cc3)CC2)C1` (stereo not shown) [Example 73, N-[2-(3,4-Dichlorophenyl)propan-2-yl]-4-[(3-methyl-1,4′-bipiperidin-1′-yl)carbonyl]benzamide trifluoroacetic acid salt] it is 80 nM. The figure for `CCOC[C@@H]1CCCN(C2CCN(C(=O)c3ccc(C(C)(C)O)cc3)CC2)C1` (single isomer, unassigned; enantiomer 2) [Example 121, [3-(Ethoxymethyl)-1,4′-bipiperidin-1′-yl][4-(2-hydroxypropan-2-yl)phenyl]methanone (enantiomer 2)] is 5 nM; for `CC1CCCN(C2CCN(C(=O)c3ccc(C(C)C)cc3)CC2)C1` (stereo not shown) [Example 4, (4-Isopropylphenyl)(3-methyl-1,4′-bipiperidin-1′-yl)methanone] it is 294 nM.

With `CC1CCCN(C2CCN(C(=O)c3ccc(C4(CN(C)S(C)(=O)=O)CCC4)cc3)CC2)C1` (stereo not shown) [Example 57, N-Methyl-N-[(1-{4-[(3-methyl-1,4′-bipiperidin-1′yl)carbonyl]phenyl}cyclobutyl)methyl]methanesulphonamide], the IC50 was 18 nM.

Consider `COc1ccccc1OCc1ccc(C(=O)N2CCC(N3CCCC(C)C3)CC2)cc1` (stereo not shown) [Example 10, {4-[(2-Methoxyphenoxy)methyl]phenyl}[3-methyl-1,4′-bipiperidin-1′-yl]methanone], for which the half-maximal inhibitory concentration (IC50) was 96 nM. Regarding `CC1CCCN(C2CCN(C(=O)c3ccc(C(=O)N(C)CC4(C)COC4)cc3)CC2)C1` (stereo not shown) [Example 52, N-methyl-4-[(3-methyl-1,4′-bipiperidin-1′-yl)carbonyl]-N-[(3-methyloxetan-3-yl)methyl]benzamide], the half-inhibitory concentration (IC50) stood at 182 nM.

Take `CCOC(=O)C1CCCN(C2CCN(C(=O)c3ccc(C(C)(C)OC)cc3)CC2)C1` (stereo not shown) [Example 42, Ethyl 1′-[4-(2-methoxypropan-2-yl)benzoyl]-1,4′-bipiperidine-3-carboxylate]: the IC50 was found to be 26 nM. As to `CC(C)(O)c1ccc(C(=O)N2CCC(N3CCCC(COc4cccc(F)c4)C3)CC2)cc1` (stereo not shown) [Example 108, {3-[(3-Fluorophenoxy)methyl]-1,4′-bipiperidin-1′-yl}[4-(2-hydroxypropan-2-yl)phenyl]methanone], the IC50 amounted to 112 nM.

With `CC1CCCN(C2CCN(C(=O)c3ccc(C(=O)NCc4cccc(OC(F)(F)F)c4)cc3)CC2)C1` (stereo not shown) [Example 70, 4-[(3-Methyl-1,4′-bipiperidin-1′-yl)carbonyl]-N-[3-(trifluoromethoxy)benzyl]benzamide trifluoroacetic acid salt], the 50% inhibitory concentration (IC50) came out at 190 nM. Consider `CCN(CCOC)C(=O)c1ccc(C(=O)N2CCC(N3CCCC(C)C3)CC2)cc1` (stereo not shown) [Example 37, 1-(1-{4-[Ethyl-(2-methoxyethyl)carbamoyl]benzoyl}piperidin-4-yl)-3-methylpiperidine trifluoroacetic acid salt], for which the 50% inhibitory concentration (IC50) worked out at 406 nM. Consider `C[C@@H]1CCCN(C2CCN(C(=O)c3ccc(C(=O)NCc4c(F)cccc4F)cc3)CC2)C1` [Example 88, N-(2,6-Difluorobenzyl)-4-{[(3R)-3-methyl-1,4′-bipiperidin-1′-yl]carbonyl}benzamide trifluoroacetic acid salt], for which the half-inhibitory concentration (IC50) was 11 nM.

For `CC1CCCN(C2CCN(C(=O)c3ccc(C(C)(C)C)c(Cl)c3)CC2)C1` (stereo not shown) [Example 3, (3-Chloro-4-tert-butylphenyl)(3-methyl-1,4′-bipiperidin-1′-yl)methanone trifluoroacetic acid salt], the IC50 was 268 nM.

`CC1CCCN(C2CCN(C(=O)c3ccc(C(=O)NC(C)(C)c4ccc(C(F)(F)F)cc4)cc3)CC2)C1` (stereo not shown) [Example 72, 4-[(3-Methyl-1,4′-bipiperidin-1′-yl)carbonyl]-N-{2-[4-(trifluoromethyl)phenyl]propan-2-yl}benzamide trifluoroacetic acid salt]: the IC50 was 116 nM. As to `CC1CCCN(C2CCN(C(=O)c3ccc(C4(CO)CC4)cc3)CC2)C1` (stereo not shown) [Example 31, 1-(1-{4-[1-(Hydroxymethyl)cyclopropyl]benzoyl}piperidin-4-yl)-3-methylpiperidine trifluoroacetic acid salt], the IC50 came to 403 nM.

`O=C(c1ccc(C2(O)COC2)cc1)N1CCC(N2CCCC(OCC3CC3)C2)CC1` (stereo not shown) [Example 124, [3-(Cyclopropylmethoxy)-1,4′-bipiperidin-1′-yl][4-(3-hydroxyoxetan-3-yl)phenyl]methanone]: the 50% inhibitory concentration (IC50) is 39 nM.

With `C[C@@H]1CN(C2CCN(C(=O)c3ccc(C(C)(C)C)cc3)CC2)CC[C@@H]1C` (relative stereo) [Example 20, cis-1-[1-(4-tert-Butylbenzoyl)piperidin-4-yl]-3,4-dimethylpiperidine trifluoroacetic acid salt], the IC50 was 117 nM. `CC(C)(O)c1ccc(C(=O)N2CCC(N3CCCC(COC4CCC4)C3)CC2)cc1` (racemic) [Example 116, {3-[(Cyclobutyloxy)methyl]-1,4′-bipiperidin-1′-yl}[4-(2-hydroxypropan-2-yl)phenyl]methanone (racemate)]: the IC50 came out at 7 nM. For the compound `COc1cc(C(C)(C)C)ccc1C(=O)N1CCC(N2CCCC(C)C2)CC1` (stereo not shown) [Example 15, (4-tert-Butyl-2-methoxyphenyl)(3-methyl-1,4′-bipiperidin-1′-yl)methanone], the IC50 was determined as 98 nM. In the case of `CC1CCCN(C2CCN(C(=O)c3ccc(C(=O)NC(C)(C)C)c(F)c3)CC2)C1` (stereo not shown) [Example 103, N-tert-Butyl-2-fluoro-4-[(3-methyl-1,4′-bipiperidin-1′-yl)carbonyl]benzamide], the IC50 was 73 nM.

Values taken from patent publication US20160318866A1, “SUBSTITUTED BIPIPERIDINYL DERIVATIVES” (Bayer Pharma Aktiengesellschaft, priority 2013, published 2016).
